Read-outs that look alike come from different tables or passages of the source.
What was measured:
Assay type in all cases: cell-based, human
HEK-293 cells = experiment: XTT cytotoxicity assay, non-tumorigenic cells; conditions: XTT assay, exposure time of the IC50 not stated (24, 48, 72 h tested)
Protocol: Human cell lines for breast cancer (MCF-7), lung cancer (A549), prostate cancer (PC-3), and nontumorigenic HEK-293 were sourced from the Health Protection Agency (U.K.) and the Interlab Cell Line Collection (Italy). The cells were cultured in RPMI medium (Sigma) supplemented with 10% heat-inactivated fetal bovine serum, 1% penicillin, and 1% L-glutamine, and incubated in a humidified CO2 atmosphere at 37 °C.
(§1) To evaluate the cytotoxic effects of TZEPs, which were dissolved in dimethyl sulfoxide (DMSO), the XTT assay (2,3-bis(2-methoxy-4-nitro-5-sulfophenyl)-2H-tetrazolium-5-carboxanilide) was employed. Cells were plated in 96-well plates at a density of 10^4 cells per well and exposed to varying concentrations of TZEPs (ranging from 1 to 250 μM) for 24, 48, and 72 h. Following the incubation, 100 μL of XTT was added to each well, and the plates were incubated for an additional 4 h at 37 °C. The resulting color change was measured by recording the absorbance at 570 nm using a microplate reader (Tecan).
The IC50 values, which indicate the concentration of the compound required to inhibit 50% of cancer cell proliferation, were determined using Biosoft CalcuSyn 2.1 software. […] Conversely, an SI less than 1 means the drug is more toxic to normal cells than to target cells, which is undesirable in therapeutic contexts. In the literature, a selectivity index of 2 or higher is generally considered significant, implying that the compound selectively targets diseased cells with relatively low toxicity to healthy cells.[15]

PC-3 cells [1] = experiment: XTT cytotoxicity assay, prostate cancer cells; conditions: for IC50: read-out: IC50, prostate cancer (PC-3); for Selectivity index (SI), prostate cancer (PC-3): versus normal cells HEK-293
Protocol: (§2) The cells were cultured in RPMI medium (Sigma) supplemented with 10% heat-inactivated fetal bovine serum, 1% penicillin, and 1% L-glutamine, and incubated in a humidified CO2 atmosphere at 37 °C.
as §1, with “Cells were plated in 96-well plates at a density of 10^4 cells per well and exposed to varying concentrations of TZEPs (ranging from 1 to 250 μM) for 24, 48, and 72 h.” left out
(§3) Conversely, an SI less than 1 means the drug is more toxic to normal cells than to target cells, which is undesirable in therapeutic contexts.

MCF-7 cells [2] = experiment: XTT cytotoxicity assay, breast cancer cells; conditions: for IC50: read-out: IC50, breast cancer (MCF-7); for Selectivity index (SI), breast cancer (MCF-7): versus normal cells HEK-293
Protocol: as §2
as §1, with “Cells were plated in 96-well plates at a density of 10^4 cells per well and exposed to varying concentrations of TZEPs (ranging from 1 to 250 μM) for 24, 48, and 72 h.” left out
as §3

A549 cells [3] = experiment: XTT cytotoxicity assay, lung cancer cells; conditions: for IC50: read-out: IC50, lung cancer (A549); for Selectivity index (SI), lung cancer (A549): versus normal cells HEK-293
Protocol: as §2
as §1, with “Cells were plated in 96-well plates at a density of 10^4 cells per well and exposed to varying concentrations of TZEPs (ranging from 1 to 250 μM) for 24, 48, and 72 h.” left out
as §3

A549 cells [4] = experiment: Annexin V-FITC/PI apoptosis detection by flow cytometry; conditions: A549, IC50 concentration, 72 h
Description: (§4) Annexin V, a protein with a high affinity for phosphatidylserine (PS), is pivotal in detecting apoptosis. Normally, PS is located in the inner leaflet of the plasma membrane, but during apoptosis, it moves to the outer leaflet, making it a key marker for apoptotic cells.[16] Annexin V binds specifically to PS on the surface of these cells. A secondary dye like propidium iodide (PI) is used to distinguish apoptotic cells from viable ones with intact membranes. We can identify and quantify viable cells (annexin V–, PI–) and apoptotic cells (annexin V+, PI+) by analyzing fluorescence patterns. Here, we employed the FITC Annexin V Apoptosis Detection Kit I from BD Pharmingen. Cells were seeded at a density of 10^6 cells per well in a 6-well plate and exposed to IC50 concentration of TZEP7 for 72 h. Following treatment, cells were rinsed with cold PBS, resuspended in 1 mL of 1× Binding Buffer, and stained with 5 μL of Annexin V FITC and 5 μL of PI. After vortexing, the samples were incubated at room temperature (25 °C) for 15 min in the dark. Postincubation, 400 μL of 1× Binding Buffer was added to each sample, and apoptosis was measured using a BD Accuri C6 Flow Cytometer. Cisplatin was used as an apoptosis-inducing reference drug.

PC-3 cells [5] = experiment: as above; conditions: PC-3, IC50 concentration, 72 h
Description: as §4

MCF-7 cells [6] = experiment: as above; conditions: MCF-7, IC50 concentration, 72 h
Description: as §4

[7] = Homo sapiens, PC-3, XTT assay, exposure time of the IC50 not stated (24, 48, 72 h tested)
[8] = Homo sapiens, MCF7, XTT assay, exposure time of the IC50 not stated (24, 48, 72 h tested)
[9] = Homo sapiens, A549, XTT assay, exposure time of the IC50 not stated (24, 48, 72 h tested)
[10] = XTT assay, exposure time of the IC50 not stated (24, 48, 72 h tested)

C(#Cc1ccccc1)/C=C1/CN=C(c2ccccc2)C=C(c2ccccc2)S1 [TZEP1]
IC50 (HEK-293 cells; Homo sapiens, HEK293): 29.5 ± 0.8 µM | IC50 (PC-3 cells [1]; [7]): 12.4 ± 3.2 µM | Selectivity index (SI), prostate cancer (PC-3) (PC-3 cells [1]): 2.37 | IC50 (MCF-7 cells [2]; [8]): 69.4 ± 1.2 µM | Selectivity index (SI), breast cancer (MCF-7) (MCF-7 cells [2]): 0.42 | IC50 (A549 cells [3]; [9]): 38.7 ± 3.2 µM | Selectivity index (SI), lung cancer (A549) (A549 cells [3]): 0.76

Fc1cccc(C2=NC/C(=C/C#Cc3ccccc3)SC(c3ccccc3)=C2)c1 [TZEP2]
IC50 (HEK-293 cells; Homo sapiens, HEK293): 45.7 ± 2.7 µM | IC50 (PC-3 cells [1]; [7]): 57.7 ± 1.4 µM | Selectivity index (SI), prostate cancer (PC-3) (PC-3 cells [1]): 0.79 | IC50 (MCF-7 cells [2]; [8]): 66.4 ± 1.8 µM | Selectivity index (SI), breast cancer (MCF-7) (MCF-7 cells [2]): 0.68 | IC50 (A549 cells [3]; [9]): 61.4 ± 1.6 µM | Selectivity index (SI), lung cancer (A549) (A549 cells [3]): 0.74

Brc1ccc(C2=NC/C(=C/C#Cc3ccccc3)SC(c3ccccc3)=C2)cc1 [TZEP3]
IC50 (HEK-293 cells; Homo sapiens, HEK293): 35.5 ± 1.3 µM | IC50 (PC-3 cells [1]; [7]): 71.2 ± 0.9 µM | Selectivity index (SI), prostate cancer (PC-3) (PC-3 cells [1]): 0.49 | IC50 (MCF-7 cells [2]; [8]): 13.3 ± 1 µM | Selectivity index (SI), breast cancer (MCF-7) (MCF-7 cells [2]): 2.66 | IC50 (A549 cells [3]; [9]): 60.3 ± 0.8 µM | Selectivity index (SI), lung cancer (A549) (A549 cells [3]): 0.58

Clc1ccc(C2=CC(c3ccccc3)=NC/C(=C/C#Cc3ccccc3)S2)cc1 [TZEP4]
IC50 (HEK-293 cells; Homo sapiens, HEK293): 47.3 ± 0.7 µM | IC50 (PC-3 cells [1]; [7]): 73.5 ± 2.2 µM | Selectivity index (SI), prostate cancer (PC-3) (PC-3 cells [1]): 0.64 | IC50 (MCF-7 cells [2]; [8]): 81.2 ± 4.4 µM | Selectivity index (SI), breast cancer (MCF-7) (MCF-7 cells [2]): 0.58 | IC50 (A549 cells [3]; [9]): 71.1 ± 2.6 µM | Selectivity index (SI), lung cancer (A549) (A549 cells [3]): 0.66

Brc1ccccc1C1=CC(c2ccccc2)=NC/C(=C/C#Cc2ccccc2)S1 [TZEP5]
IC50 (HEK-293 cells; Homo sapiens, HEK293): 20.4 ± 1.4 µM | IC50 (PC-3 cells [1]; [7]): 54.9 ± 3.2 µM | Selectivity index (SI), prostate cancer (PC-3) (PC-3 cells [1]): 0.37 | IC50 (MCF-7 cells [2]; [8]): 22.3 ± 1.8 µM | Selectivity index (SI), breast cancer (MCF-7) (MCF-7 cells [2]): 0.91 | IC50 (A549 cells [3]; [9]): 45.8 ± 0.9 µM | Selectivity index (SI), lung cancer (A549) (A549 cells [3]): 0.44

Clc1ccc(C2=NC/C(=C/C#Cc3ccccc3)SC(c3ccccc3Br)=C2)cc1 [TZEP6]
IC50 (HEK-293 cells; Homo sapiens, HEK293): 10.9 ± 3.4 µM | IC50 (PC-3 cells [1]; [7]): 12.4 ± 3.6 µM | Selectivity index (SI), prostate cancer (PC-3) (PC-3 cells [1]): 0.87 | IC50 (MCF-7 cells [2]; [8]): 15.5 ± 2.8 µM | Selectivity index (SI), breast cancer (MCF-7) (MCF-7 cells [2]): 0.70 | IC50 (A549 cells [3]; [9]): 14.2 ± 2.2 µM | Selectivity index (SI), lung cancer (A549) (A549 cells [3]): 0.76

C(#Cc1ccccc1)/C=C1/CN=C(c2ccsc2)C=C(c2ccccc2)S1 [TZEP8]
IC50 (HEK-293 cells; Homo sapiens, HEK293): 99.2 ± 3 µM | IC50 (PC-3 cells [1]; [7]): 95.4 ± 1.2 µM | Selectivity index (SI), prostate cancer (PC-3) (PC-3 cells [1]): 1.03 | IC50 (MCF-7 cells [2]; [8]): 85.7 ± 2.4 µM | Selectivity index (SI), breast cancer (MCF-7) (MCF-7 cells [2]): 1.15 | IC50 (A549 cells [3]; [9]): 112.8 ± 0.8 µM | Selectivity index (SI), lung cancer (A549) (A549 cells [3]): 0.87

Cc1ccc(C2=NC/C(=C/C#Cc3ccccc3)SC(c3ccccc3)=C2)cc1 [TZEP9]
IC50 (HEK-293 cells; Homo sapiens, HEK293): 98.8 ± 0.7 µM | IC50 (PC-3 cells [1]; [7]): 103 ± 2 µM | Selectivity index (SI), prostate cancer (PC-3) (PC-3 cells [1]): 0.96 | IC50 (MCF-7 cells [2]; [8]): 78.4 ± 1.8 µM | Selectivity index (SI), breast cancer (MCF-7) (MCF-7 cells [2]): 1.26 | IC50 (A549 cells [3]; [9]): 96.6 ± 1.4 µM | Selectivity index (SI), lung cancer (A549) (A549 cells [3]): 1.02

CC(C)(C)c1ccc(C2=NC/C(=C/C#Cc3ccccc3)SC(c3ccccc3)=C2)cc1 [TZEP10]
IC50 (HEK-293 cells; Homo sapiens, HEK293): 89 ± 0.5 µM | IC50 (PC-3 cells [1]; [7]): 73.7 ± 3.2 µM | Selectivity index (SI), prostate cancer (PC-3) (PC-3 cells [1]): 1.20 | IC50 (MCF-7 cells [2]; [8]): 76.3 ± 0.8 µM | Selectivity index (SI), breast cancer (MCF-7) (MCF-7 cells [2]): 1.16 | IC50 (A549 cells [3]; [9]): 64.4 ± 1.8 µM | Selectivity index (SI), lung cancer (A549) (A549 cells [3]): 1.38

COc1ccc(C2=NC/C(=C/C#Cc3ccccc3)SC(c3ccccc3)=C2)cc1 [TZEP11]
IC50 (HEK-293 cells; Homo sapiens, HEK293): 112 ± 3 µM | IC50 (PC-3 cells [1]; [7]): 81.6 ± 3.4 µM | Selectivity index (SI), prostate cancer (PC-3) (PC-3 cells [1]): 1.37 | IC50 (MCF-7 cells [2]; [8]): 98.2 ± 2.8 µM | Selectivity index (SI), breast cancer (MCF-7) (MCF-7 cells [2]): 1.14 | IC50 (A549 cells [3]; [9]): 108 ± 2.6 µM | Selectivity index (SI), lung cancer (A549) (A549 cells [3]): 1.04

Cc1ccc(C#C/C=C2/CN=C(c3ccccc3)C=C(c3ccccc3)S2)cc1 [TZEP12]
IC50 (HEK-293 cells; Homo sapiens, HEK293): 110 ± 1.2 µM | IC50 (PC-3 cells [1]; [7]): 101 ± 3 µM | Selectivity index (SI), prostate cancer (PC-3) (PC-3 cells [1]): 1.09 | IC50 (MCF-7 cells [2]; [8]): 92.6 ± 1 µM | Selectivity index (SI), breast cancer (MCF-7) (MCF-7 cells [2]): 1.19 | IC50 (A549 cells [3]; [9]): 90.5 ± 0.7 µM | Selectivity index (SI), lung cancer (A549) (A549 cells [3]): 1.21

N.N.[Cl][Pt][Cl] [cisplatin, Cisplatin, reference compound]
cells in early apoptosis (A549 cells [4]): 13.4% | cells in late apoptosis (A549 cells [4]): 70.8% | cells in early apoptosis (PC-3 cells [5]): 16.2% | cells in late apoptosis (PC-3 cells [5]): 75.4% | cells in early apoptosis (MCF-7 cells [6]): 18.7% | cells in late apoptosis (MCF-7 cells [6]): 72.2% | IC50 (HEK-293 cells): 15 ± 0.7 µM | IC50 (PC-3 cells [1]; [10]): 12.8 ± 2.8 µM | Selectivity index (SI), prostate cancer (PC-3) (PC-3 cells [1]): 1.17 | IC50 (MCF-7 cells [2]; [10]): 14.7 ± 0.6 µM | Selectivity index (SI), breast cancer (MCF-7) (MCF-7 cells [2]): 1.02 | IC50 (A549 cells [3]; [10]): 13.4 ± 1.4 µM | Selectivity index (SI), lung cancer (A549) (A549 cells [3]): 1.11

C#Cc1cccc(Nc2ncnc3cc(OCCOC)c(OCCOC)cc23)c1 [erlotinib, Erlotinib, reference compound]
IC50 (HEK-293 cells; Homo sapiens, HEK293): 12.9 ± 3 µM | IC50 (PC-3 cells [1]; Homo sapiens, PC-3, 72 h): 15.5 ± 30.8 µM | IC50 (MCF-7 cells [2]; Homo sapiens, MCF7, 72 h): 13.4 ± 2 µM | IC50 (A549 cells [3]; Homo sapiens, A549, 72 h): 18.4 ± 0.4 µM

Source: PMC11740379, “Novel Enyne-Modified 1,4-Thiazepines as Epidermal Growth Factor Receptor Inhibitors: Anticancer and Computational Studies” (ACS Omega, 2024)
